Reference: patent US20170128448A1, “COMBINATION THERAPY FOR CANCER” (Celgene Corporation, priority 2014, published 2017)

Key:
DLBCL cell lines = details: lenalidomide with ibrutinib (Yang, 2012); cited from earlier work
[1] = tested on: DLBCL cell lines (Oci-Ly10, WSU-DLCL2); test: 8-day cytotoxicity assay (cell titer glo), DLBCL lines; type: cell-based; details: Compound A 200 nM for 8 days + obinutuzumab (GA101) 0 to 10,000 ng/mL last 24 hours
Experimental: (§1) In vitro combination efficacy studies were performed with Compound A and obinutuzumab (GA101). Two follicular (RL and DoHH2) and two diffuse large B cell lymphoma (DLBCL) (Oci-Ly10, WSU-DLCL2) cell lines were treated with either single agent Compound A (200 nM), single agent obinutuzumab (0 to 10,000 ng/mL) or in combination in 8-day cytotoxicity assays (cell titer glo). In both the single agent and combination studies, the cells were treated with Compound A for 8 days and with obinutuzumab treatment on the last 24 hours in the combination studies.

[2] = First-in-human study of Compound A, Part A dose escalation; type: in vivo; details: for dose limiting toxicities (DLT) observed: in vivo
Experimental: (§2) The first-in-human study of Compound A is being conducted in a broad tumor population including diverse solid tumors, lymphoma and MM. Part A of the study used a Compound A starting dose of 0.5 mg QD on a continuous dosing schedule. Using allometric scaling, this dose represented a dose ˜20-fold below the highest non-severely toxic dose (HNSTD) in primates based on preclinical toxicology studies. Part A dose escalation proceeded in 0.5 mg increments (0.5, 1.0, 1.5, 2.0, 2.5, 3.0, 3.5 mg) and established the nontolerated dose (NTD) at 3.5 mg QD and the MTD at 3.0 mg QD. […] In Part B, parallel expansion cohorts (14 to 20 subjects each) in 4 tumor indications (MM, NHL, HCC and gliomas) were subsequently enrolled at a dose of 3.0 mg QD. Given that subjects with CLL may be more sensitive to the side effects of immunomodulatory agents (IMiDs®) and other cereblon-binding agents, and the clinical safety, PK and pharmacodynamics data observed with Compound A to date, a lower Compound A starting dose of 0.25 mg QD was used in a CLL population.

T cells = test: T cell co-stimulation; type: cell-based; details: under appropriate conditions
human NK cell = test: NK cell IFN-γ production in response to immobilized Ig-G and IL-2 stimulation; type: cell-based; details: read-out: EC50, enhancement of NK cell IFN-γ production
Source text: Without being bound by a particular theory, Compound A is believed to enhance the human NK cell killing function, antibody-dependent cellular cytotoxicity (ADCC), in rituximab coated lymphoma cell lines.

DoHH2 lymphoma xenograft = DoHH2 lymphoma xenograft model; type: in vivo
Experimental: (§3) In combination with rituximab, Compound A at 3 and 30 mg/kg induced complete regressions in 60% and 90% of animals, respectively.

human CLL cells = test: Primary cultures of human CLL cells; type: cell-based; details: in 70% of samples tested
Experimental: (§4) A second consideration for the starting dose of Compound A is based on the relative in vitro potency between Compound A and lenalidomide and the relative human safety and tolerability of lenalidomide in CLL. […] Clinical exploration of lenalidomide in CLL has established 5 mg to be a tolerable starting dose.

[3] = in vivo
Experimental: as §2

[4] = tested on: panel of lymphoma and MM cell lines; test: Immunomodulatory and anti-proliferative activity against a panel of cell lines; type: cell-based
Experimental: as §4

TNF-α = test: Cytokine inhibition in LPS-stimulated hPBMC and human whole blood: TNF-α; type: cell-based
Source text: (§5) TNF-α is an inflammatory cytokine produced by macrophages and monocytes during acute inflammation. TNF-α is responsible for a diverse range of signaling events within cells. TNF-α may play a pathological role in cancer. Without being limited by theory, one of the biological effects exerted by Compound A is the reduction of synthesis of TNF-α. Compound A enhances the degradation of TNF-α mRNA.

[5] = tested on: WSU-DLCL2 lymphoma xenograft; test: WSU-DLCL2 lymphoma xenograft model; type: in vivo; details: for complete regressions, % of animals: WSU-DLCL2
Experimental: as §3

IL-10 = test: Cytokine stimulation in LPS-stimulated hPBMC and human whole blood: IL-10; type: cell-based
Source text: as §5

[6] = tested on: follicular lymphoma cell lines (RL and DoHH2); test: 8-day cytotoxicity assay (cell titer glo), follicular lymphoma lines; type: cell-based; details: Compound A 200 nM for 8 days + obinutuzumab (GA101) 0 to 10,000 ng/mL last 24 hours; FL lines
Experimental: as §1

IL-1β = test: Cytokine inhibition in LPS-stimulated hPBMC and human whole blood: IL-1β; type: cell-based
Source text: as §5

[7] = cited from earlier work
[8] = continuous dosing, solid tumors, lymphoma and MM

Q: For `C=CC(=O)N1CCC[C@@H](n2nc(-c3ccc(Oc4ccccc4)cc3)c3c(N)ncnc32)C1` [ibrutinib], which “combination effect of lenalidomide and ibrutinib on killing of DLBCL cell lines” value (DLBCL cell lines) is on record?
A: synergistically kill

Q: What does the source list for `Cc1nc2cccc(N)c2c(=O)n1C1CCC(=O)NC1=O` (centres unmarked) [Compound A, 3-(5-amino-2-methyl-4-oxo-4H-quinazolin-3-yl)-piperidine-2,6-dione]?
A: combination effect on cytotoxicity [1]: additive; MTD [2, 8]: 3.0 mg QD; nontolerated dose (NTD) [2, 8]: 3.5 mg QD; dose limiting toxicities (DLT) observed ([2]; human): Grade 3 fever and fatigue and Grade 3 muscle weakness; dose limiting toxicities (DLT) observed [2]: No DLTs; T cell co-stimulation, cell proliferation (T cells): increased cell proliferation in a dose dependent manner; EC50 (human NK cell): 1.5 nM; tumor growth inhibition, single agent (DoHH2 lymphoma xenograft; Compound A single agent at 3 and 30 mg/kg): modest dose-dependent tumor growth inhibition; tumor growth delay, combination with rituximab (DoHH2 lymphoma xenograft; in combination with rituximab): significantly and dose-dependently delayed tumor growth; potency relative to lenalidomide (human CLL cells): ~5 fold; starting dose relative to highest non-severely toxic dose (HNSTD) in primates, fold below [3]: ~20 fold; potency relative to lenalidomide, immunomodulatory and anti-proliferative activity [4]: ~10 fold; inhibition of TNF-α (TNF-α): markedly inhibits; complete regressions, % of animals ([5]; Compound A 3 mg/kg in combination with rituximab): 60%; complete regressions, % of animals ([5]; Compound A 30 mg/kg in combination with rituximab): 90%; effect as single agent ([5]; WSU-DLCL2 study, Compound A single agent): minimal effects; tumor growth inhibition, administered with rituximab ([5]; WSU-DLCL2 xenograft, administered with rituximab): dose-dependent tumor growth inhibition; effect on IL-10 (IL-10): stimulates; combination effect on cytotoxicity [6]: synergistic; inhibition of IL-1β (IL-1β): potently inhibits

Q: Which “combination effect on cytotoxicity” value [1] does the source give for “GA101: humanized type II monoclonal antibody that binds to CD20 and triggers destruction of B-cells” here?
A: additive

Q: And the “combination effect on cytotoxicity” value [6]?
A: synergistic

Q: For `Nc1cccc2c1CN(C1CCC(=O)NC1=O)C2=O` (centres unmarked) [lenalidomide], which “effect of intermittent dosing schedule in CLL” value ([7]; 21 of 28 day cycles, during the 7 day drug holidays (Chen, 2011)) is on record?
A: rebound lymphocytosis

Q: And the “tolerable starting dose in CLL” value ([7]; CLL patients)?
A: 5 mg

Q: And the “combination effect of lenalidomide and ibrutinib on killing of DLBCL cell lines” value (DLBCL cell lines)?
A: synergistically kill
